Laboratory results as given in publication PMC3627359 (Journal of medicinal chemistry, 2013).
Like-named read-outs stand apart in the source and are kept apart here.

What was measured:
[1] = In vitro microsomal stability; assay type: in vitro ADME; settings: Human microsomes, data from Apredica
[2] = In vitro Caco-2 permeability; assay type: in vitro ADME; settings: human
[3] = In vitro microsomal stability; assay type: in vitro ADME; settings: Mouse microsomes, data from Apredica
[4] = cited from earlier work
cortical neurons = experiment: Primary cortical neuron protection assay; assay type: cell-based
[5] = test system: PC12 cells expressing G93A SOD1; experiment: Mutant SOD1-induced cytotoxicity protection assay; assay type: cell-based

| Compound | NADPH-absent CLint (microsomal intrinsic clearance) [1] [mL/min/kg] | NADPH-dependent CLint (microsomal intrinsic clearance) [1] [mL/min/kg] | NADPH-absent CLint (microsomal intrinsic clearance) [3] [mL/min/kg] | NADPH-dependent CLint (microsomal intrinsic clearance) [3] [mL/min/kg] | also measured |
| --- | --- | --- | --- | --- | --- |
| O=c1cc(COc2cc(Cl)cc(Cl)c2)[nH][nH]1 [Compound 1] | 13 | 25 | 21 | 64 | efflux ratio [2]: 0.4; AUC/dose ([4]; i.v. administration): 184 ng*h/mL/dose; PK half-life ([4]; in vivo PK): 3.6 h; AUC/dose ([4]; p.o. administration): 50 ng*h/mL/dose; Oral bioavailability ([4]; p.o. vs i.v.): 27% |
| O=c1cc(CNc2cc(Cl)cc(Cl)c2)[nH][nH]1 [Compound 2, 5-((3,5-Dichlorophenylamino)methyl)-1H-pyrazol-3(2H)-one] | 0 | 24 | 23 | 78 | – |
| CN(Cc1cc(=O)[nH][nH]1)c1cc(Cl)cc(Cl)c1 [Compound 3, 5-(((3,5-Dichlorophenyl)(methyl)amino)methyl)-1H-pyrazol-3(2H)-one] | 0 | 0 | 0 | 93 | Neuronal activity recovered (cortical neurons; 10 μM concentration): 100% |
| CN(CCCc1cc(=O)[nH][nH]1)c1cc(Cl)cc(Cl)c1 [Compound 24, 5-(3-((3,5-Dichlorophenyl)(methyl)amino)propyl)-1H-pyrazol-3(2H)-one] | – | – | – | – | Activity with cortical neurons (cortical neurons): not active |
| O=c1[nH][nH]c2c1CN(c1cc(Cl)cc(Cl)c1)CC2 [Compound 27, 5-(3,5-Dichlorophenyl)-4,5,6,7-tetrahydro-1H-pyrazolo[4,3-c]pyridin-3(2H)-one] | – | – | – | – | Activity with cortical neurons (cortical neurons): not active |
| CN(Cc1cc(=O)n(Cc2ccccc2)[nH]1)c1cc(Cl)cc(Cl)c1 [Compound 29, 2-Benzyl-5-(((3,5-dichlorophenyl)(methyl)amino)methyl)-1H-pyrazol-3(2H)-one] | – | – | – | – | Activity in the PC12 assay [5]: comparable in activity to parent compound 3 |
| CN(Cc1cc(=O)n(C)[nH]1)c1cc(Cl)cc(Cl)c1 [Compound 30, 5-(((3,5-Dichlorophenyl)(methyl)amino)methyl)-2-methyl-1H-pyrazol-3(2H)-one] | – | – | – | – | Activity in the PC12 assay [5]: comparable in activity to parent compound 3 |
